Laboratory results from patent US20060063736A1, “Compositions and methods for inhibiting mucin-type O-linked glycosylation” (priority 2004, published 2006).
Several values for one entry are separate records, joined by “and”; a condition that tells them apart may be missing. Identical values can stand only once. No end group written: not given here.

Legend:
mppGalNAcT-1 = target: T1, mppGalNAcT-1 (Mus musculus, UniProt O08912); assay: ELLA for ppGalNAcTs, mppGalNAcT-1; type: biochemical, murine; conditions: mppGalNAcT-1, ELLA validation
T1 construct: plasmids encoding truncated secreted ppGalNAcTs-1 to −5, -7, -10 and -11; made in house; host or cells: COS-7
T1 sequence (O08912 29-559 limits assumed): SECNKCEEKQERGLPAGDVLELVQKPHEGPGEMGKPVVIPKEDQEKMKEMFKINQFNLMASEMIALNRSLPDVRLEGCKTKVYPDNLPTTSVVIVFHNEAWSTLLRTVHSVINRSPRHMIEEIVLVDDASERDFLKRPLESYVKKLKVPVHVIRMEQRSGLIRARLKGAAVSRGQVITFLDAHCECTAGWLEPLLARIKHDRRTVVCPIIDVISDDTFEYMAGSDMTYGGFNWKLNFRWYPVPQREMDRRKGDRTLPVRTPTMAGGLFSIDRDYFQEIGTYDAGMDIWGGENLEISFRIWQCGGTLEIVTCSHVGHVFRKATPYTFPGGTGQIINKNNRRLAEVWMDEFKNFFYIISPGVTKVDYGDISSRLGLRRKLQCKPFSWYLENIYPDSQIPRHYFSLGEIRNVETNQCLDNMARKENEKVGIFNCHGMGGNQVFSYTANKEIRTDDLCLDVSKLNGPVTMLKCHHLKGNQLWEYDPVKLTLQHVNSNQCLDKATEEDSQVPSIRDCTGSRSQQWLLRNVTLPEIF
Procedure: COS-7 cells were transiently transfected with plasmids encoding truncated secreted ppGalNAcTs-1 to −5, -7, -10 and -11 as previously described. Hagen et al. (1997) J. Biol. Chem. 272:13843-13848. The crude conditioned medium was used as the enzyme source.
Standard reaction conditions for ppGalNAcT assays were as follows. The reaction mixture contained the following components in a final volume of 25 μL: 10 mM MnCl2, 40 mM sodium cacodylate, 40 mM β-mercaptoethanol, 0.1% Triton X-100, pH 6.5, 5 μL of conditioned media, and various concentrations of EA2 peptide 4, UDP-GalNAc and inhibitor. All uridine-based compounds were dissolved in dimethyl sulfoxide (DMSO). The concentration of DMSO in the reaction mixture was limited to 2% (v/v), as higher concentrations decreased ppGalNAcT activity. For inhibitor assays, reaction mixtures for positive controls also contained 2% DMSO. Unless otherwise stated, inhibitor assays were performed using 20 μM UDP-GalNAc and 50 μM EA2 peptide 4, the KM values for both substrates. Reactions were incubated at 37° C. and were terminated by the addition of 10 μL of 0.1 M EDTA. All experiments were performed in duplicate. Reaction rates were linear over the period monitored (20-30 min).
96-Well NeutrAvidin-coated plates were prewashed 3 times with 200 μL of wash buffer (25 mM Tris, 150 mM NaCl, 0.1% bovine serum albumin (BSA) (w/v), and 0.05% Tween (v/v), pH 7.2). Reactions were then transferred to the 96-well plates, incubated for 1 hour at room temperature (rt) and subsequently washed 3 times with 200 μL of phosphate-buffered saline (PBS) containing 0.5% BSA and 0.05% Tween, pH 7.1. A 100-μL solution of HPA-HRP in standard PBS buffer (1 μg/mL, pH 7.4) was added and the reaction was incubated for 1 h at rt. After 3 washes with 200 μL of PBS, bound HPA-HRP was quantified by the addition of 100 μL of TMB peroxide solution. The solutions were incubated for 5-15 min in the dark at rt. HRP activity was terminated by the addition of 50 μL of 2 N H2SO4 and the resulting solution was analyzed at 450 nm using a UV/Vis microtiter plate reader. The amount of product generated by the ppGalNAcT was extrapolated from absorbance values using an equation fit to the standard curve derived from Origin 6.1 software.
In order to screen the library in high-throughput format, a non-radioactive enzyme linked lectin assay (ELLA) for ppGalNAcTs was developed. As an acceptor substrate, the EA2 peptide (PTTDSTTPAPTTK; SEQ ID NO:12), a fragment of rat submandibular mucin, was chosen. Albone et al. (1994) J. Biol. Chem. 269:16845-16852. This peptide has been previously shown to be an efficient substrate for murine (m) ppGalNAcT-1 and is preferentially glycosylated at the fourth Thr residue from the N-terminus (underlined). Ten Hagen et al. (2001, supra). Biotinylation of EA2 allowed capture of (glyco)peptides onto 96-well NeutrAvidin-coated plates. The GalNAc-modified glycopeptide product could be detected using the α-GalNAc-specific lectin Helix pomatia agglutinin (HPA) (Hammarstrom et al. (1977) Biochemistry 16:2750-2755) conjugated to horseradish peroxidase (HRP). The bound HRP was quantified by addition of a chromogenic substrate.

Jurkat cells [1] = assay: HPA staining of Jurkat cells (Tn-antigen), flow cytometry; type: cell-based, human; conditions: Jurkat cells, 2 d treatment
Procedure: (§1) Jurkat cells were seeded at 250,000 cells/well (determined by Coulter cell counter) in 12-well polystyrene tissue culture plates in 1.0 mL of media and treated with various concentrations of 1-68A or 2-68A from 50 mM dimethyl sulfoxide (DMSO) stock solutions or doxorubicin or campothecin from 1 mM DMSO stock solutions. After 2 d, cells were harvested, washed twice with PBS buffer (PBS, pH 7.4, 0.1% FCS, 0.1% NaN3 w/v) and stained with FITC-HPA (1 μg/mL) or FITC-Con A (5 μg/mL with 1 mM CaCl2) in PBS, pH 7.4 in the dark for 1 h at 4° C. Cells were washed twice with PBS buffer, resuspended in 300 μL of PBS buffer and analyzed by flow cytometry (FacsCaliber, BD Instruments). Annexin-V staining was performed according to the manufacturer's protocols (Invitrogen).
(§2) To directly monitor ppGalNAcT activities in cells, Jurkat cells (human T-cell lymphoma), which are known to produce only the Tn-antigen (FIG. 1) as their O-linked glycans, were chosen. Piller et al. (1990) J. Biol. Chem. 265:9264-9271. Changes in Tn-antigen expression on the surface of Jurkat cells were monitored by HPA binding followed by flow cytometry analysis. Con A staining of N-linked glycans was used as a control for non-specific inhibition of protein glycosylation. Baenziger and Fiete (1979) J. Biol. Chem. 254:2400-2407.

Jurkat cells [2] = assay: Con A staining of N-linked glycans on Jurkat cells, flow cytometry; type: cell-based, human; conditions: 2 d treatment
Procedure: as §1, §2

Jurkat cells [3] = assay: Annexin-V staining of Jurkat cells (apoptosis); type: cell-based, human; conditions: 2 d treatment
Procedure: as §1, §2

[4] = target: C-terminal biotinylated EA2* glycopeptide 5 (…; SEQ ID NO:17) (rat); assay: enzyme-linked lectin assay (ELLA): 15% glycopeptide 5 (9 pmol) on NeutrAvidin plates, detected with HPA-HRP
[5] = target: T2, C-terminal biotinylated EA2 peptide 4 (PTTKDSTTPAPTTKK; SEQ ID NO:16)
T2 chain: PTTKDSTTPAPTTKK

O=c1ccn([C@@H]2O[C@H](COP(=O)(O)OP(=O)(O)O)[C@@H](O)[C@H]2O)c(=O)[nH]1 [UDP, reference compound]
Ki (mppGalNAcT-1; read-out: KI value for the product UDP): 251 µM and 250 µM

CC[C@@]1(O)C(=O)OCc2c1cc1n(c2=O)Cc2cc3ccccc3nc2-1 [campothecin, reference compound]
effect on HPA staining (Jurkat cells [1]): reduced | effect on Con A staining (Jurkat cells [2]): reduced | Annexin-V staining (induction of apoptosis) (Jurkat cells [3]): induced Annexin V binding at levels comparable to 1-68A

COc1cccc2c1C(=O)c1c(O)c3c(c(O)c1C2=O)C[C@@](O)(C(=O)CO)C[C@@H]3O[C@H]1C[C@H](N)[C@H](O)[C@H](C)O1 [doxorubicin, reference compound]
effect on HPA staining (Jurkat cells [1]): reduced | effect on Con A staining (Jurkat cells [2]): reduced | Annexin-V staining (induction of apoptosis) (Jurkat cells [3]): induced Annexin V binding at levels comparable to 1-68A

EA2 peptide 4: C-terminal biotinylated EA2 peptide (PTTKDSTTPAPTTKK; SEQ ID NO:16), fragment of rat submandibular mucin, acceptor substrate (PTTKDSTTPAPTTKK-biotin) [reference compound]
Km (mppGalNAcT-1): 48 ± 4 µM

Helix pomatia agglutinin (HPA) conjugated to horse radish peroxidase (HPA-HRP)
signal to noise ratio (fold above background) [4]: 30

uridine diphosphate N-acetyl-α-galactosamine [UDP-GalNAc, reference compound]
Km (mppGalNAcT-1): 13.9 µM and 14 µM

B1: murine polypeptide N-acetyl-α-galactosaminyltransferase-1 (mppGalNAcT-1) (protein)
chain: GLPAGDVLELVQKPHEGPGEMGKPVVIPKEDQEKMKEMFKINQFNLMASEMIALNRSLPDVRLEGCKTKVYPDNLPTTSVVIVFHNEAWSTLLRTVHSVINRSPRHMIEEIVLVDDASERDFLKRPLESYVKKLKVPVHVIRMEQRSGLIRARLKGAAVSRGQVITFLDAHCECTAGWLEPLLARIKHDRRTVVCPIIDVISDDTFEYMAGSDMTYGGFNWKLNFRWYPVPQREMDRRKGDRTLPVRTPTMAGGLFSIDRDYFQEIGTYDAGMDIWGGENLEISFRIWQCGGTLEIVTCSHVGHVFRKATPYTFPGGTGQIINKNNRRLAEVWMDEFKNFFYIISPGVTKVDYGDISSRLGLRRKLQCKPFSWYLENIYPDSQIPRHYFSLGEIRNVETNQCLDNMARKENEKVGIFNCHGMGGNQVFSYTANKEIRTDDLCLDVSKLNGPVTMLKCHHLKGNQLWEYDPVKLTLQHVNSNQCLDKATEEDSQVPSIRDCTGSRSQQWLLRNVTLPEIF
KM (ELLA enzyme kinetics) [5]: 48.0 ± 4.0 µM
